Data: patent US8975406B2, “Compound useful for the treatment of degenerative and inflammatory diseases” (Galapagos N.V., priority 2011, dated 2015)

Tests used:
Assay type in all cases: biochemical
[1] = target: T1, Recombinant human JAK2 (Homo sapiens, UniProt O60674); experiment: JAK2 Ulight-JAK1 peptide assay; conditions: Ulight-JAK1(tyr1023) peptide, 7.5 μM ATP
T1 construct: catalytic domain (amino acids 808-1132; catalog number PV4210); GST; purchased Invitrogen PV4210
Procedure, shortened: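 JAK2 catalytic domain ([…]), 0.0125 mU, with 25 nM Ulight-JAK1(tyr1023) peptide, 7.5 μM ATP, HEPES pH7.0, 60 min at room temperature; stopped with EDTA and Eu-anti-phosphotyrosine, TR-FRET read at 615 nm. Inhibition normalised to vehicle and 10 μM staurosporine; IC50 from 10-point ⅕ dilutions from 20 μM, 1% DMSO.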

[2] = target: T2, Recombinant human JAK3 catalytic domain (Homo sapiens, UniProt P52333); experiment: JAK3 inhibition assay; conditions: polyGT substrate, 33P-gamma-ATP filter assay, 1 μM ATP
T2 construct: catalytic domain (amino acids 795-1124; catalog number 08-046); purchased Carna Biosciences 08-046
Procedure, shortened: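 Kinase domain aa 795-1124 with polyGT substrate, 1 μM ATP plus ^33P-γ-ATP, pH 7.5 Tris buffer, 1% DMSO; 45 min at 30° C. Filter-bound radioactivity counted, inhibition normalised to vehicle and 10 μM staurosporine. IC50 from 10-point 1/5 dilutions, top concentration usually 20 μM.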

[3] = target: T3, Recombinant human JAK1 (Homo sapiens, UniProt P23458); experiment: JAK1 Ulight-JAK1 peptide assay; conditions: Ulight-JAK1(tyr1023) peptide, 7 μM ATP
T3 construct: catalytic domain (amino acids 866-1154; catalog number PV4774); purchased Invitrogen PV4774
Procedure, shortened: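 TR-FRET assay: recombinant human JAK1 catalytic domain (aa 866-1154, 1 ng) phosphorylates 20 nM Ulight-JAK1(tyr1023) peptide at 7 μM ATP in MOPS pH 6.8 buffer, 1% DMSO, for 60 min at room temperature. Eu-anti-phosphotyrosine detection follows EDTA stop. IC50 comes from 10-point ⅕ dilutions from 20 μM, normalized to 10 μM staurosporine.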

T1 sequence (O60674 808-1132): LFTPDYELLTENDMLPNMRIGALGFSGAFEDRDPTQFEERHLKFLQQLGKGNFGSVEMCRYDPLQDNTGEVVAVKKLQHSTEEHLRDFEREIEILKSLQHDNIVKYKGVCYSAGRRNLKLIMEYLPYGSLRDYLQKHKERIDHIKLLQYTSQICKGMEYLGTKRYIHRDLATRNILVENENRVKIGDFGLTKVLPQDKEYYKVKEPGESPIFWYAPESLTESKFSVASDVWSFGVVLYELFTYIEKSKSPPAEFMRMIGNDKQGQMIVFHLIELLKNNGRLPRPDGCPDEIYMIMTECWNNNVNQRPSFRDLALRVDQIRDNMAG
T3 sequence (P23458 866-1154): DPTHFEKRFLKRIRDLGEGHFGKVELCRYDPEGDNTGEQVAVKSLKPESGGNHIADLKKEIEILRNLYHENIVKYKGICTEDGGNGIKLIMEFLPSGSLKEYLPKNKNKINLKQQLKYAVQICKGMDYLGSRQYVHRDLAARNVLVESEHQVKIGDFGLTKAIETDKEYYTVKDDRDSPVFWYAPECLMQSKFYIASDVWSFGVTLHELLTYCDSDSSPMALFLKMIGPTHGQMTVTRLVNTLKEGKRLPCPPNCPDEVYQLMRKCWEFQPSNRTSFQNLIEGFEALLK
T2 sequence (P52333 795-1124): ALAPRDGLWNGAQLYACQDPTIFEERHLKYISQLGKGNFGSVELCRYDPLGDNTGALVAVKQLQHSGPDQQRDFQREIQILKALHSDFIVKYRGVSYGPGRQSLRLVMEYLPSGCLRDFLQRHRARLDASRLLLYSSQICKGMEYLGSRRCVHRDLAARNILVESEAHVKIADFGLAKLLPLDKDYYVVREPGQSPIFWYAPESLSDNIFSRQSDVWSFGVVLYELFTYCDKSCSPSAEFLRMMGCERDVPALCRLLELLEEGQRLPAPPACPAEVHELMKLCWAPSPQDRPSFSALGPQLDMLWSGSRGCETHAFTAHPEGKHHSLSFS

IC50 [1]	IC50 [2]	IC50 [3]	Compound
101 to 500 nM	501 to 1000 nM	0.01 to 100 nM	CS(=O)(=O)C1CCN(Cc2ccc(-c3cccn4nc(NC(=O)C5CC5)c(Cl)c34)cc2F)CC1 [Compound 20, N-(3-chloro-4-(3-fluoro-4-((4-(methylsulfonyl)piperidin-1-yl)methyl)phenyl)pyrazolo[1,5-a]pyridin-2-yl)cyclopropanecarboxamide]
0.01 to 100 nM	> 1000 nM	0.01 to 100 nM	O=C(NCCc1ccccc1)c1ccc(-c2cccn3nc(NC(=O)C4CC4)cc23)cc1 [Compound 5, 4-(2-(cyclopropanecarboxamido)pyrazolo[1,5-a]pyridin-4-yl)-N-phenethylbenzamide]
0.01 to 100 nM	0.01 to 100 nM	0.01 to 100 nM	CC(c1ccc(-c2cccn3nc(NC(=O)C4CC4)cc23)cc1)N1CCN(S(C)(=O)=O)CC1 (stereo not drawn) [Compound 43, N-(4-(4-(1-(4-(methylsulfonyl)piperazin-1-yl)ethyl)phenyl)pyrazolo[1,5-a]pyridin-2-yl)cyclopropanecarboxamide]
0.01 to 100 nM	101 to 500 nM	0.01 to 100 nM	CC(=O)Nc1cc2c(-c3ccc(CN4CCC(S(C)(=O)=O)CC4)c(F)c3)cccn2n1 [Compound 29, N-(4-(3-fluoro-4((4-(methylsulfonyl)piperidin-1-yl)methyl)phenyl)pyrazolo[1,5-a]pyridin-2-yl)acetamide]
